PubChem BioAssay AID179 (DTP/NCI, 2004)
The source made the active and inactive calls.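 Rule for the calls: active = compounds giving half or more protection of infected cells from virus-caused growth loss, again on retest; inactive = the rest.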

System: CEM cells HIV-1 protection, formazan growth assay
Assay: NCI AIDS Antiviral Assay
Conditions: for IC50: measured here: growth of uninfected CEM cells
Outline: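 CEM (human) cells, HIV-1 infected vs uninfected, 5-point dosing, formazan growth read-out. Retest threshold 50% protection.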

For `O=C(O)c1ccccc1-c1c2cc([N+](=O)[O-])c(=O)c(Br)c-2oc2c(Br)c(O)c([N+](=O)[O-])cc12`, the EC50 was over 316 µM and the IC50 was 8.13 µM.
For `C=C(CO[Si](C)(C)C(C)(C)C)C(C)=O`, the outcome was “inactive”.
`CSc1nc2c(c(=O)n1C)N=C(c1ccc(Cl)cc1)CC(c1ccccc1)N2` (stereo unspecified) gave an EC50 of over 200 µM and an IC50 of 18.2 µM.
`CCOC(=O)n1c2ccccc2c(=O)n1CCO` was tested, and the EC50 was over 200 µM and the IC50 was over 200 µM.
`CC1CC(C(=O)CC2CC(=O)NC(=O)C2)C(=O)[C@@H](C)C1` (stereo partly specified) was tested, and the outcome was “inactive”.
`Nc1ccc2oc(=O)c(C(=O)O)cc2c1` was tested, and the EC50 was over 363 µM and the IC50 was 162 µM.
`CC(C)(NC(=O)c1ccccc1SC(=O)CCCC[n+]1ccccc1)C(N)=O` gave an EC50 of 1 µM and an IC50 of 50.1 µM.
For `NC(=O)c1nc2ccccc2nc1Nc1ccc(Cl)cc1Cl`, the EC50 was over 1.58 µM and the IC50 was over 1.58 µM.
With `COc1ccc(CSC2=C(C#N)C(=O)NC3(CCCCC3)S2)cc1` the EC50 was over 200 µM and the IC50 was 110 µM.
In the case of `Cc1ccccc1NC(=O)/C=N/O`, the outcome is reported as “inactive”.
In the case of `CC(C)(c1ccccc1)c1ccc(Oc2ccc3c(c2)-c2nc-3nc3[nH]c(nc4nc(nc5[nH]c(n2)c2ccc(Oc6ccc(C(C)(C)c7ccccc7)cc6)cc52)-c2cc(Oc5ccc(C(C)(C)c6ccccc6)cc5)ccc2-4)c2ccc(Oc4ccc(C(C)(C)c5ccccc5)cc4)cc32)cc1`, the EC50 is reported as over 2.63 µM and the IC50 is reported as over 2.63 µM.
In the case of `CCOP(=O)(C=C=C(C)C)OCC`, the EC50 is reported as over 200 µM and the IC50 is reported as over 200 µM.
`c1cnc2c3cnc4sccc4c3nn2c1` gave an EC50 of over 74.1 µM and an IC50 of over 74.1 µM.
For `CC(=O)OC1CC[C@@]2(C)C(=CC[C@@H]3[C@@H]2CC[C@]2(C)Nc4c(cnn4-c4ccc(F)cc4)C[C@@H]32)C1` (stereo partly specified), the EC50 was over 10 µM and the IC50 was over 10 µM.
Molecule `O=S(=O)(O)c1cc(N=Nc2ccc(/C=C/c3ccc(N=Nc4cc(S(=O)(=O)O)c5cccnc5c4O)cc3)cc2)c(O)c2ncccc12` has an EC50 of 3.98 µM and an IC50 of 93.3 µM.
For `O=CN/C=C\c1cc(O)ccc1O`, the EC50 was over 427 µM and the IC50 was 5.25 µM.
Molecule `COC1C(=O)CCC2(CO2)C1(O)C1(C)OC1CCC(C)C` (stereo unspecified) has an EC50 of over 200 µM and an IC50 of 4.37 µM.
For `Cn1cc(C(=O)c2ccccc2)c2ccccc2c1=O`, the outcome was “inactive”.
`COc1ccc(-c2c(-c3ccc(OC)cc3)n3c(=O)n(C)c(=O)n23)cc1` gave an EC50 of over 200 µM and an IC50 of 79.4 µM.
For `COc1ccc2c(c1)OC(OC)(c1ccc(OC)c(OC)c1)C(O)(OC)C2=O` (stereo unspecified), the EC50 was over 200 µM and the IC50 was 11.2 µM.
`O=P1(O)c2ccccc2CCc2ccccc21` showed an EC50 of over 200 µM and an IC50 of over 200 µM.
With `CC1=CCC[C@@H]2C1(C)CCC(C)[C@@]2(C)CC1=CC(=O)C=CC1=O` (stereo partly specified) the EC50 was over 50.1 µM and the IC50 was 11.5 µM.
In the case of `CN(C)/C=C/c1c2c(nc3ccccc13)C(=O)c1ccccc1C2=O`, the EC50 is reported as over 100 µM and the IC50 is reported as 2.24 µM.
For `COc1ccc(/C=C(\C#N)c2nc3ccccc3c(=O)[nH]2)cc1`, the outcome was “active”.
In the case of `CN1CCN(C2=NCCO2)CC1`, the EC50 is reported as over 200 µM and the IC50 is reported as over 200 µM.
`COC(=O)C(Cc1c(C2Nc3ccccc3C2CC(NC(C)=O)C(=O)OC)[nH]c2ccccc12)NC(C)=O` (stereo unspecified) showed an EC50 of over 200 µM and an IC50 of over 200 µM.
Work on `O=C(O)Cc1cccc2c1OC(c1ccccc1)C(C(=O)c1ccccc1)C2=O` (stereo unspecified) yielded an EC50 of over 200 µM and an IC50 of 75.9 µM.
For `CC1SCc2nc3ccccc3n21` (stereo unspecified), the EC50 was over 200 µM and the IC50 was over 200 µM.
`CC(=O)Oc1ccc2c3c4nc5ccccc5nc4cc(OC(C)=O)c3n(C)c2c1` showed an EC50 of over 5.01 µM and an IC50 of over 5.01 µM.
For `Oc1c(Br)cc(Br)cc1-c1[nH]c(Br)c(Br)c1Br`, the EC50 was over 234 µM and the IC50 was 1.02 µM.
Work on `O=S(c1ccccc1)C1CC2CC3(CCC21O)OCCO3` (stereo unspecified) yielded an EC50 of over 200 µM and an IC50 of over 200 µM.
`CC1C[C@@H]2C(=O)NC(=O)[C@@H]2c2c1c1ccccc1n2C` (stereo partly specified) was tested, and the EC50 was over 331 µM and the IC50 was 214 µM.
Work on `CCOC(=O)/C(=C\c1ccccc1OC)P(=O)(OCC)OCC` yielded an EC50 of over 724 µM and an IC50 of 13.2 µM.
Molecule `O=c1c2cn[nH]c2nc2scc(-c3ccc(Cl)cc3)n12` has an EC50 of over 200 µM and an IC50 of over 200 µM.
`CCCCCCCCCCCC(C(=O)O)C(=O)O` was tested, and the EC50 was over 138 µM and the IC50 was over 138 µM.
`c1cc(-c2cn3ccsc3n2)ccn1` showed an EC50 of over 447 µM and an IC50 of 186 µM.
Work on `NC(CCCCNc1ccn(C2OC(CO)C(O)C2O)c(=O)n1)C(=O)O` (stereo unspecified) yielded an EC50 of over 100 µM and an IC50 of 5.5 µM.
For `O=C(C#Cc1ccccc1)N1c2ccccc2CC1c1c[nH]c2ccccc12` (stereo unspecified), the EC50 was over 20 µM and the IC50 was 8.32 µM.
In the case of `COc1cc(C2SC(N)=Nc3c2c(C)nn3C(=O)Cc2ccccc2)ccc1O` (stereo unspecified), the EC50 is reported as 70.8 µM and the IC50 is reported as over 200 µM.
`c1ccc2c3[nH]c(c2c1)=Nc1ccc(cc1)-c1nc2cc(ccc2o1)N=c1[nH]c(c2ccccc12)=Nc1ccc2nc(oc2c1)-c1ccc(cc1)N=3` showed an EC50 of over 200 µM and an IC50 of 40.7 µM.
Work on `COc1cc2occ(-c3ccc(O)c(O)c3)c(=O)c2cc1O` yielded an EC50 of over 200 µM and an IC50 of 26.3 µM.
Molecule `CCOP(=O)(OCC)OC1CC(n2cnc3c(N(CC)CC)ncnc32)OC1CO[Si](C)(C)C(C)(C)C` (stereo unspecified) has an EC50 of over 200 µM and an IC50 of 31.6 µM.
`COC(=O)C12c3ccccc3C(c3ccccc31)c1c(N=O)ccc(NO)c12` showed an EC50 of over 19.5 µM and an IC50 of over 19.5 µM.
